The source of these data is US20220281825A1 (priority 2016, published 2022).

A short description of data set [1]: in vitro. The following applies: African green monkey.
Data set [2] has as its system TCRV-p. Kind of data set: organism not typed. It counts as cell-based. The note with it: Vero, 24 h, read-out: TCRV-p EC50 (nM).
For data set [3], the system named is VSV-p. Kind of data set: microbe, parasite or virus in culture. Type of data set: cell-based. The note with it: Vesicular stomatitis virus, Vero, 24 h, read-out: VSV-p EC50 (nM).
In data set [4] the test system is GTOV-p. Kind of data set: organism not typed. It counts as cell-based, Guanarito (GTOV). The following applies: Vero, 24 h, read-out: GTOV-p EC50 (nM).
Data set [5] has as its system LASV-p. The experiment in a line: organism not typed. Type of data set: cell-based, Lassa (LASV). The following applies: Vero, 24 h, read-out: LASV-p EC50 (nM).
Data set [6] deals with MACV-p. The experiment in a line: organism not typed. The note with it: Vero, 24 h, read-out: MACV-p EC50 (nM). It counts as cell-based, Machupo (MACV).
In data set [7] the test system is JUNV-p. Kind of data set: organism not typed. Type of data set: cell-based, Junin (JUNV). The following applies: Vero, 24 h, read-out: JUNV-p EC50 (nM).

Bounds are passed on as bounds.

As usually defined, the EC50 is the concentration that produces a half-maximal response. Consider `CC(C)Oc1ccc(-n2nnc3ccc(-c4ccc5[nH]ccc5c4)cc32)cc1` [Example B13, 6-(1H-indol-5-yl)-1-[4-(propan-2-yloxy)phenyl]-1H-1,2,3-benzotriazole], for which the CC50 in data set [1] was found to be 6620 nM. Moreover, the EC50 in data set [2] came to 20.4 nM; in data set [3], 5360 nM; in data set [4], 1.24 nM; in data set [5], 1.53 nM; in data set [6] it was 5.58 nM; in data set [7], 1.8 nM.
Turning to `CC(C)Oc1ccc(-c2ccc3ncc(-c4ccc(OCC5CC5)cc4)n3c2)cc1` [Example C33, 3-[4-(cyclopropylmethoxy)phenyl]-6-[4-(propan-2-yloxy)phenyl]imidazo[1,2a]pyridine], in data set [1], the CC50 was found to be 4770 nM. Moreover, the EC50 was determined as 6.57 nM in data set [2]; 4770 nM in data set [3]; 0.91 nM in data set [4]; 1.3 nM in data set [5]; 5.31 nM in data set [6]; 2.3 nM in data set [7].
In data set [1], `CC(C)Oc1ccc(-c2ccc3ncc(-c4ccc(OC(F)F)cc4)n3c2)cc1` [Example C40, 3-[4-(difluoromethoxy)phenyl]-6-[4-(propan-2-yloxy)phenyl]imidazo[1,2a]pyridine] returned a CC50 of 4110 nM. Also, the EC50 turned out to be 22.6 nM in data set [2]; 6170 nM in data set [3]; 1.35 nM in data set [4]; 3.83 nM in data set [5]; 5.85 nM in data set [6]; 0.97 nM in data set [7].
`COc1ccc(-n2cnc3ccc(-c4ccc(N(C)C)cc4)cc32)cc1` [Example A7, 4-[1-(4-methoxyphenyl)-1H-1,3-benzodiazol-6-yl]-N,N-dimethylaniline] returned a CC50 in data set [1] of 3960 nM. Besides, the EC50 in data set [2] was above 25 nM; in data set [3], 980 nM; in data set [5], 8.9 nM; in data set [6] it was 17 nM; in data set [7], 1.8 nM.
As to `CC(C)Oc1ccc(-c2ccc3ncc(-c4ccc(C(C)(C)O)cc4)n3c2)cc1` [Example C38, 2-(4-{6-[4-(propan-2-yloxy)phenyl]imidazo[1,2-a]pyridin-3-yl}phenyl)propan-2-ol], the EC50 in data set [2] was 1.77 nM; in data set [4], 0.2 nM; in data set [5], 0.84 nM.
For `COc1ccc(-n2cnc3ccc(-c4ccc5[nH]ccc5c4)cc32)cc1` [Example A12, 6-(1H-indol-5-yl)-1-(4-methoxyphenyl)-1H-1,3-benzodiazole], the CC50 in data set [1] was determined as 200 nM. Also, the EC50 in data set [2] was 21.4 nM; in data set [3] it was 800 nM; in data set [5], 0.81 nM; in data set [6], above 25 nM; in data set [7] it was 19.3 nM.
On to `COc1ccc(-n2cnc3ccc(-c4ccc(C(C)(C)O)cc4)cc32)cc1` [Example A8, 2-{4-[1-(4-methoxyphenyl)-1H-1,3-benzodiazol-6-yl]phenyl}propan-2-ol], for which the CC50 in data set [1] amounted to 9540 nM. Besides, the EC50 in data set [2] is 21.7 nM; in data set [3], above 1000 nM; in data set [5], 6.4 nM; in data set [6], 22.3 nM; in data set [7] it was 3.98 nM.
In data set [1], `CC(C)Oc1ccc(-n2cnc3ccc(-c4ccc(N(C)C)cc4)cc32)cc1` [Example A18, N,N-dimethyl-4-{1-[4-(propan-2-yloxy)phenyl]-1H-1,3-benzodiazol-6-yl}aniline] yielded a CC50 of 14000 nM. Further, the EC50 was 12.5 nM in data set [2]; above 1000 nM in data set [3]; 0.07 nM in data set [4]; 1.08 nM in data set [5]; 2.27 nM in data set [6]; 1.55 nM in data set [7].
For `COc1ccc(-n2cnc3ccc(-c4ccc(N5CCOCC5)cc4)cc32)cc1` [Example A16, 1-(4-methoxyphenyl)-6-[4-(morpholin-4-yl)phenyl]-1H-1,3-benzodiazole], the CC50 in data set [1] was above 100000 nM. Further, the EC50 in data set [2] was above 25 nM; in data set [3] it was above 1000 nM; in data set [5], 17.2 nM; in data set [6], above 25 nM; in data set [7] it was 15.3 nM.
In data set [1], `CC(C)Oc1ccc(-c2cnc3ccc(-c4ccc5c(ccn5C)c4)cn23)cc1` [Example C22, 1-methyl-5-{3-[4-(propan-2-yloxy)phenyl]imidazo[1,2-a]pyridin-6-yl}-1H-indole] returned a CC50 of 24400 nM. Besides, the EC50 in data set [2] was found to be 4.94 nM; in data set [4] it was 0.45 nM; in data set [5] it was 2.33 nM; in data set [6], 0.335 nM; in data set [7], 0.415 nM.
For the compound `CC(C)Oc1ccc(-c2cnc3ccc(-c4ccc(OC(C)C)c(F)c4)cn23)cc1` [Example C24, 6-[3-fluoro-4-(propan-2-yloxy)phenyl]-3-[4-(propan-2-yloxy)phenyl]imidazo[1,2-a]pyridine], the CC50 in data set [1] amounted to 4180 nM. Further, the concentration for a half-maximal effect (EC50) turned out to be 3.91 nM in data set [2]; 9810 nM in data set [3]; 0.15 nM in data set [4]; 4.58 nM in data set [5]; 0.875 nM in data set [6]; 0.416 nM in data set [7].
`CC(C)Oc1ccc(-c2cnc3ccc(-c4ccc5cc[nH]c5c4)cn23)cc1` [Example C11, 6-{3-[4-(propan-2-yloxy)phenyl]imidazo[1,2-a]pyridin-6-yl}-1H-indole]: the CC50 in data set [1] worked out at 25200 nM. In addition, the EC50 in data set [2] was 18.4 nM; in data set [3] it was 3090 nM; in data set [4], 0.86 nM; in data set [5], 2.83 nM; in data set [6], 10 nM; in data set [7], 3.21 nM.
In turn, `CC(C)Oc1ccc(-c2cnc3ccc(-c4ccc(C5(O)CCC5)cc4)cn23)cc1` [Example C9, 1-(4-{3-[4-(propan-2-yloxy)phenyl]imidazo[1,2-a]pyridin-6-yl}phenyl)cyclobutan-1-ol] yielded a CC50 in data set [1] of 3970 nM. The EC50 is 1.7 nM in data set [2]; 5810 nM in data set [3]; 0.27 nM in data set [4]; 1.15 nM in data set [5]; 0.71 nM in data set [6]; 0.45 nM in data set [7].
`CC(=O)c1ccc(-c2ccc3ncn(-c4ccc(OC(C)C)cc4)c3c2)cc1` [Example A26, 1-(4-{1-[4-(propan-2-yloxy)phenyl]-1H-1,3-benzodiazol-6-yl}phenyl)ethan-1-one]: the CC50 in data set [1] came to 7520 nM. Further, the EC50 in data set [2] amounted to 1.45 nM; in data set [4], 0.73 nM; in data set [5], 0.59 nM; in data set [6], 0.7 nM; in data set [7], 0.81 nM.
`c1cc(-c2ccc3ncc(-c4ccc(OC5CC5)cc4)n3c2)ccc1OC1CC1` [Example C46, 3,6-bis(4-cyclopropoxyphenyl)imidazo[1,2-a]pyridine] gave a CC50 in data set [1] of 4610 nM. Moreover, the EC50 came out at 22.5 nM in data set [2]; 4550 nM in data set [3]; 1.26 nM in data set [4]; 7.23 nM in data set [5]; 8.47 nM in data set [6]; 4.42 nM in data set [7].
The compound `CC(C)Oc1ccc(-c2cnc3ncc(-c4ccc5[nH]ccc5c4)n3c2)cc1` [Example D16, 5-{6-[4-(propan-2-yloxy)phenyl]imidazo[1,2-a]pyrimidin-3-yl}-1H-indole] returned a CC50 in data set [1] of 7530 nM. For the same compound, the EC50 came out at 19.9 nM in data set [2]; 3.52 nM in data set [4]; 5.37 nM in data set [5]; 19.1 nM in data set [6]; 1.05 nM in data set [7].
The compound `COc1ccc(-n2cnc3ccc(-c4ccc(C(C)=O)cc4)cc32)cc1` [Example A14, 1-{4-[1-(4-methoxyphenyl)-1H-1,3-benzodiazol-6-yl]phenyl}ethan-1-one] gave a CC50 in data set [1] of 1950 nM. Also, the EC50 is above 25 nM in data set [2], 7.4 nM in data set [5], above 25 nM in data set [6] and above 25 nM in data set [7].
The compound `CC(C)Oc1ccc(-n2cnc3ccc(-c4ccc5[nH]ccc5c4)nc32)cc1` [Example B3, 5-{3-[4-(propan-2-yloxy)phenyl]-3H-imidazo[4,5-b]pyridin-5-yl}-1H-indole] had a CC50 in data set [1] above 100000 nM. Besides, the EC50 in data set [2] is 27.7 nM; in data set [5], 1.01 nM; in data set [6], 10.3 nM; in data set [7], 1.79 nM.
Turning to `CC(C)Oc1ccc(-n2cnc3cnc(-c4ccc5[nH]ccc5c4)nc32)cc1` [Example B11, 2-(1H-indol-5-yl)-9-[4-(propan-2-yloxy)phenyl]-9H-purine], the CC50 in data set [1] stood at 24200 nM. Further, the EC50 in data set [2] is above 25 nM; in data set [5], 6.4 nM; in data set [6], 25 nM; in data set [7], 25 nM.
Consider `CC(C)Oc1ccc(-c2ccc3nc(C#N)c(-c4ccc(OC(C)C)cc4)n3c2)cc1` [Example D23, 3,6-bis[4-(propan-2-yloxy)phenyl]imidazo[1,2-a]pyridine-2-carbonitrile], for which the CC50 in data set [1] was above 100000 nM. Also, the EC50 is above 25 nM in data set [2], 27.4 nM in data set [5], above 25 nM in data set [6] and 3.78 nM in data set [7].
With `CC(C)Oc1ccc(-n2cnc3ccc(-c4ccc(N5CCOCC5)cc4)cc32)cc1` [Example A21, 6-[4-(morpholin-4-yl)phenyl]-1-[4-(propan-2-yloxy)phenyl]-1H-1,3-benzodiazole], in data set [1], the CC50 is 5220 nM. In addition, the EC50 in data set [2] was above 25 nM; in data set [5], 3.07 nM; in data set [6], 14.4 nM; in data set [7], 3.5 nM.
The corresponding values for `CC(C)Oc1ccc(-c2cnc3ccc(-c4ccc5[nH]ncc5c4)cn23)cc1` [Example C10, 5-{3-[4-(propan-2-yloxy)phenyl]imidazo[1,2-a]pyridin-6-yl}-1H-indazole] are above 100 nM, above 25 nM, 4.61 nM, 28.9 nM and 19 nM.
